This note sets out measurements from patent US7641927B2, “Chewing gum and confectionery compositions containing a stain removing complex, and methods of making and using the same” (Cadbury Adams USA, LLC, priority 2006, dated 2010).

Structures are written as SMILES.

This experiment in a line: Stain removal study on stained hydroxyapatite (HAP) disks, CIELAB ΔE. To be noted: test solution in artificial human saliva, one hour treatment, 15 ml/min, 37° C.; FIG. 2. As for the experimental part: A flow system was assembled for staining samples of hydroxyapatite (HAP) disks using a staining solution. The staining solution was prepared from a mixture containing tea, coffee and porcine gastric mucin. The staining solution was circulated through the flow system at a rate of about 15 ml/min, and passed continuously over the HAP disks for about 96 hours at about 37° C. After 96 hours, the stained HAP disks were then placed in artificial human saliva (as prepared in Example 5) at a pH of about 7, and were then rinsed and allowed to dry. The HAP disks were segregated into 6 sample groups. Each of the HAP disks were measured to yield a baseline L*a*b stain score in accordance with the Commission International de L'Eclairage Laboratory (CIELAB) color scale. The CIELAB scale quantifies color according to 3 parameters, L* (lightness-darkness scale), a* (red-green chroma), and b* (yellow-blue chroma). In order to obtain reproducible readings, the stained HAP disks were allowed to air-dry at room temperature for about 2 hours before measurement is to be made. The baseline stain measurements were taken by making diffuse reflectance absorbance readings with a Minolta spectrophotometer. The absorbance readings over the entire visible color spectrum were obtained for each HAP disk. […] The overall change in stain level ΔE was determined for each of the treated HAP disks.

Regarding `OC[C@H]1O[C@@H]2O[C@H]3[C@H](O)[C@@H](O)[C@@H](O[C@H]4[C@H](O)[C@@H](O)[C@@H](O[C@H]5[C@H](O)[C@@H](O)[C@@H](O[C@H]6[C@H](O)[C@@H](O)[C@@H](O[C@H]7[C@H](O)[C@@H](O)[C@@H](O[C@H]8[C@H](O)[C@@H](O)[C@@H](O[C@H]1[C@H](O)[C@H]2O)O[C@@H]8CO)O[C@@H]7CO)O[C@@H]6CO)O[C@@H]5CO)O[C@@H]4CO)O[C@@H]3CO` [β-cyclodextrin], the “stain removing activity (ΔE)” value was “least stain removing activity”. The entry for `CCCCCCCCCCCCCCCCCC(=O)[O-].[Na+]` [sodium stearate] is “least stain removing activity”.
